These results are taken from patent US10851116B2, “Bicyclic amines as novel JAK kinase inhibitors” (LEO Pharma A/S, priority 2017, dated 2020).

Common to all, as to format: biochemical
The target of test [1] is JAK1 (Homo sapiens (Human), UniProt P23458). The test can be described thus: JAK kinase assay (HTRF), JAK1. The following applies: catalytic domain (aa 850-1154), GST-tag, ATP at Km (7 μM). As to the method: (§1) Human baculovirus-expressed JAK1, 2, 3 and TYK2 were purchased from Carna Biosciences, Inc. All four purified enzymes contain only the catalytic domain. JAK1 (aa 850-1154) and TYK2 (aa 871-1187) are expressed with an N-terminally fused GST-tag, and JAK2 and JAK3 with an N-terminally fused His-tag.
Sequence of JAK1 (P23458 850-1154): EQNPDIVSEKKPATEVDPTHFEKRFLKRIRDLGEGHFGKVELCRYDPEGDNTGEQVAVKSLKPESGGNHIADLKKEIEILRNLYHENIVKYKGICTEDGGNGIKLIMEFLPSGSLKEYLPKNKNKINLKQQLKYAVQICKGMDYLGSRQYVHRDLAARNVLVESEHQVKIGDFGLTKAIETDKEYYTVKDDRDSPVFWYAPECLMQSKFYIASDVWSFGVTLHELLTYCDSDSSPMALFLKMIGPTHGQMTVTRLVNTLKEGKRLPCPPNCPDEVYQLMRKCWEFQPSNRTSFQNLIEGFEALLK
(§2) Inhibition of phosphorylation of a synthetic peptide was measured in an HTRF-based assay using the TK substrate-Biotin from the Cisbio HTRFKinEASE TK kit. First, 2 μl of TK solution (TK substrate-biotin in kinase buffer [1× enzymatic buffer from HTRFKinEASE TK kit, 1 mM DTT]) is added to a plate containing 1 μl prediluted compound (final assay concentration DMSO: 0.75%). Then, 5 μl kinase-ATP mix (prepared in kinase buffer) is added to the wells and the plates are incubated at RT for 20-30 min. For all four kinases a concentration of ATP that corresponded to the Km for ATP was used. The final concentrations of buffers, substrate, kinase and ATP were: JAK1: 50 mM Hepes buffer pH 7.0, 0.01% BSA, 10 mM MgCl2, 1 mM DTT, 7 μM ATP, 50 nM SEB, 1 μM TK Substrate-Biotin and 5 ng JAK1; JAK2: 50 mM Hepes buffer pH 7.0, 0.01% BSA, 5 mM MgCl2, 1 mM DTT, 4 μM ATP, 1 μM TK Substrate-Biotin and 0.1 ng JAK2; JAK3: 50 mM Hepes buffer pH 7.0, 0.01% BSA, 5 mM MgCl2, 1 mM DTT, 2 μM ATP, 1 μM TK Substrate-Biotin and 0.3 ng JAK3; TYK2: 50 mM Hepes buffer pH 7.0, 0.01% BSA, 5 mM MgCl2, 1 mM DTT, 13 μM ATP, 50 nM SEB, 1 μM TK Substrate-Biotin and 0.8 ng TYK2. Thereafter, the kinase reaction is stopped by adding 4 μl detection mix (final concentrations: 50 mM Hepes buffer pH 7.0, 0.01% BSA, 0.8 M KF, 20 mM EDTA, 42 nM Streptavidin-XL665 and 1:400 STK Ab Cryptate) and the plates are incubated overnight in the dark. The HTRF signal is read using an Envision plate reader.
On the technique in general: Time-resolved FRET reads energy transfer from a long-lived donor to a nearby acceptor.

For test [2], the target named is JAK2 (Homo sapiens (Human), UniProt O60674). As to the kind of experiment: JAK kinase assay (HTRF), JAK2. To be noted: catalytic domain, His-tag, ATP at Km (4 μM). As to the method:
as §1, §2

In test [3] the target is JAK3 (Homo sapiens (Human), UniProt P52333). As to the kind of experiment: JAK kinase assay (HTRF), JAK3. To be noted: catalytic domain, His-tag, ATP at Km (2 μM). The protocol:
as §1, §2

In test [4] the target is TYK2 (Homo sapiens (Human), UniProt P29597). The test can be described thus: JAK kinase assay (HTRF), TYK2. The following applies: catalytic domain (aa 871-1187), GST-tag, ATP at Km (13 μM). The protocol:
as §1, §2

Sequence of JAK2 (O60674 849-1124): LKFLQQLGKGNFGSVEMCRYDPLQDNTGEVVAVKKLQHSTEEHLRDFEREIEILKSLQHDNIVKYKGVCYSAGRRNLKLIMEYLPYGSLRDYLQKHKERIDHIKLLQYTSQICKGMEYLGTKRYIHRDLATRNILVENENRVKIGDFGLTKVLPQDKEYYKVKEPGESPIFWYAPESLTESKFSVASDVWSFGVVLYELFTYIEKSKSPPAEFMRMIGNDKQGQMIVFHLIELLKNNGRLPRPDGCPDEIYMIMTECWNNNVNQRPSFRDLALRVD
Sequence of TYK2 (P29597 871-1187): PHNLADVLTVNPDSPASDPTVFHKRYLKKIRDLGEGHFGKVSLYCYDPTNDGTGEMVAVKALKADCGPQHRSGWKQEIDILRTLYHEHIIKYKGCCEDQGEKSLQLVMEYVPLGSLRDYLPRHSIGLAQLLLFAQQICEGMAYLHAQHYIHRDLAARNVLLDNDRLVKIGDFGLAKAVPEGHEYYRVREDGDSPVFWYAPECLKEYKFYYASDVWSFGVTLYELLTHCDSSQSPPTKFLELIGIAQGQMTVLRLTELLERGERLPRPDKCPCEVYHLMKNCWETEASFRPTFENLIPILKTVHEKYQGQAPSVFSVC
Sequence of JAK3 (P52333 822-1111): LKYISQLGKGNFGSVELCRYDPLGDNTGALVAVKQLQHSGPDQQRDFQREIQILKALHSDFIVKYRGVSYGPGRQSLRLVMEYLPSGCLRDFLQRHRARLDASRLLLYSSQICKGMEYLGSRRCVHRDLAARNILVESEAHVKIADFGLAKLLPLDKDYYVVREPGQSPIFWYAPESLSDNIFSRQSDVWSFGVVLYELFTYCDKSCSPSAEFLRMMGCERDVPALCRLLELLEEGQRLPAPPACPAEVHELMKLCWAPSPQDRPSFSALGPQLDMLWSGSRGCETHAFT

`C[C@]12CN(c3ccc(C#N)nn3)CC[C@H]1CCN(c1ncnc3[nH]ccc13)C2` (racemic) [Example 6, 6-[(4aR*,8aS*)-8a-methyl-7-(7H-pyrrolo[2,3-d]pyrimidin-4-yl)-3,4,4a,5,6,8-hexahydro-1H-2,7-naphthyridin-2-yl]pyridazine-3-carbonitrile]: the EC50 stood at 17 nM in test [1], 64 nM in test [2], 9 nM in test [3] and 634 nM in test [4].
The like results for `CC[C@@]12CN(C#N)CC[C@@H]1CCN(c1ncnc3[nH]ccc13)C2` [Example 21, (4aS,8aR)-8a-ethyl-7-(7H-pyrrolo[2,3-d]pyrimidin-4-yl)-3,4,4a,5,6,8-hexahydro-1H-2,7-naphthyridine-2-carbonitrile] were, in that order, 80 nM, 187 nM, 578 nM and 988 nM.
With `CC[C@]12CN(c3nc(C#N)cs3)CC[C@H]1CCN(c1ncnc3[nH]ccc13)C2` (relative stereo) [Example 25, 2-[(4aR*,8aS*)-8a-ethyl-7-(7H-pyrrolo[2,3-d]pyrimidin-4-yl)-3,4,4a,5,6,8-hexahydro-1H-2,7-naphthyridin-2-yl]thiazole-4-carbonitrile], the EC50 in test [1] was 46 nM; in test [2] it was 139 nM; in test [3], 29 nM; in test [4] it was 1110 nM.
The like results for `C[C@]12CN(c3ccc(C#N)cn3)CC[C@H]1CCN(c1ncnc3[nH]ccc13)C2` (racemic) [Example 5, 6-[(4aR*,8aS*)-8a-methyl-7-(7H-pyrrolo[2,3-d]pyrimidin-4-yl)-3,4,4a,5,6,8-hexahydro-1H-2,7-naphthyridin-2-yl]pyridine-3-carbonitrile] were, in that order, 10 nM, 80 nM, 7 nM and 453 nM.
For `C[C@]12CN(C(=O)CC#N)C[C@H]1CCN(c1ncnc3[nH]ccc13)C2` (racemic) [Example 32, 3-[(3aS*,7aS*)-3a-methyl-5-(7H-pyrrolo[2,3-d]pyrimidin-4-yl)-1,3,4,6,7,7a-hexahydropyrrolo[3,4-c]pyridin-2-yl]-3-oxo-propanenitrile], the EC50 in test [1] is 16 nM; in test [2] it was 67 nM; in test [3], 162 nM; in test [4] it was 307 nM.
Turning to `C[C@@]12CN(C#N)C[C@@H]1CCN(c1ncnc3[nH]ccc13)C2` [Example 28, (3aR,7aR)-3a-methyl-5-(7H-pyrrolo[2,3-d]pyrimidin-4-yl)-1,3,4,6,7,7a-hexahydropyrrolo[3,4-c]pyridine-2-carbonitrile], the EC50 is 240 nM in test [1], 827 nM in test [2], 2180 nM in test [3] and 2470 nM in test [4].
The like results for `CC[C@]12CN(c3ncnc4[nH]ccc34)CC[C@H]1CCN(S(N)(=O)=O)C2` [Example 19, (4aS,8aR)-8a-ethyl-7-(7H-pyrrolo[2,3-d]pyrimidin-4-yl)-3,4,4a,5,6,8-hexahydro-1H-2,7-naphthyridine-2-sulfonamide] were, in that order, 146 nM, 208 nM, 151 nM and 1880 nM.
For `C[C@]12CN(c3ccc(S(C)(=O)=O)cc3)C[C@H]1CCN(c1ncnc3[nH]ccc13)C2` (racemic) [Example 38, 4-[(3aR*,7aS*)-3a-methyl-2-(4-methylsulfonylphenyl)-1,3,4,6,7,7a-hexahydropyrrolo[3,4-c]pyridin-5-yl]-7H-pyrrolo[2,3-d]pyrimidine] the same measures were 7 nM, 32 nM, 71 nM and 335 nM.
The like results for `CCC12CNCCC1CCN(c1ncnc3[nH]ccc13)C2` (stereo not drawn) [Intermediate 10, 8a-ethyl-7-(7H-pyrrolo[2,3-d]pyrimidin-4-yl)-1,2,3,4,4a,5,6,8-octahydro-2,7-naphthyridine] were, in that order, 16 nM, 25 nM, 157 nM and 1980 nM.

As usually defined, the EC50 is the concentration giving half of the maximal effect. The low end stands for greater potency, the high end for weaker potency.
